# Patent publication US9675598B2, “Compositions of tolperisone” (SANOCHEMIA PHARMAZEUTIKA AG, priority 2007, dated 2017)
# Assays:
# [1] = 4-MMPPO content after standard single recrystallization of tolperisone (Example 2); format: physicochemical
# Protocol: All samples used in the analytical sequence were prepared for analysis as follows. Sample were homogenized if necessary (e.g., tablets) and weighed. For each tolperisone sample, approximately 20 mg of sample was added into a 20 mL flask. 20 mL of 50 mM HCl in MeOH was added to the flask, which was then placed in an ultrasonic bath for about 5 minutes. The contents of the flask were mixed on a vortexer for about 20 seconds. In instances in which the tolperisone sample had initially been in tablet form, the solution was then centrifuged at 4000 rpm for 2 minutes. 200 μL of the sample was then transferred into a small conical centrifuge vial. 20 μL of an internal standard solution containing deuterated 4-MMPPO, 200 μL of buffer at pH 1, and 0.4 mL of diisopropyl ether (DIPE) were added to the vial. The sample was then extracted by vortexing with a DVX-2500 multi-tube vortexer (2100 rpm) for about 2 minutes (cycle: 5 seconds run, 1 second pause time) and centrifugation (phase separation) at 4000 rpm for 2 minutes. 150 μL of 50 mM HCl in MeOH/DMSO (½) was added into empty designated conical autosampler vials. After centrifugation, 100 μL of supernatant was transferred into these conical autosampler vials. The vials were crimped and vortexed with a DVX-2500 multi-tube vortexer (2100 rpm) for about 1 minute. […]
# [2] = 4-MMPPO content after recrystallization using acidified solvent system (Example 5); format: physicochemical; settings: 1% (v/v) concentrated aqueous HCl added to the recrystallization mixture
# Protocol: Crude tolperisone was dissolved in an 85:15 (v/v) mixture of 2-butanone (MEK) and isopropanol, accompanied by addition of 1% HCl under reflux for 12 hours. The temperature was decreased to 80° C. and the solution filtered while hot. The solution was cooled to 5° C. and stirred for 7 h at 5° C.
# The crystalline precipitate was separated by filtering, washed with isopropanol, and subsequently dried in vacuo at 45 to 85° C., with lower drying temperatures being preferred.
# When 1% (v/v) concentrated aqueous HCl was added to the recrystallization mixture, 4-MMPPO levels dropped below 6.6 ppm in the final recrystallized tolperisone product.
compound,measurement,setting,value
"Cc1ccc(C(=O)C(C)CN2CCCCC2)cc1 (stereo not drawn) [tolperisone, 2-methyl-1-(4-methylphenyl)-3-(piperidinyl)-1-propanone]",4-MMPPO content of recrystallized product,[1]; ppm as printed,1400 ppm
same,"4-MMPPO content, subsequent production batches",[1]; subsequent production batches,< 0.05%
same,4-MMPPO levels in the final recrystallized tolperisone product,[2],below 6.6 ppm
